Test results taken from ChEMBL document CHEMBL2406921, “Regioselective synthesis, characterization and antimicrobial evaluation of S-glycosides and S,N-diglycosides of 1,2-Dihydro-5-(1H-indol-2-yl)-1,2,4-triazole-3-thione” (2013).

Legend:
Type in all cases: functional
Conditions in all cases: read-out: DIZ
Rhizoctonia solani = assay: Antifungal activity against Rhizoctonia solani at 5 mg/ml by paper disc diffusion method
Fusarium oxysporum = assay: Antifungal activity against Fusarium oxysporum at 5 mg/ml by paper disc diffusion method
Pseudomonas aeruginosa = assay: Antibacterial activity against Pseudomonas aeruginosa at 5 mg/ml after 24 hrs by agar-diffusion technique
Aspergillus niger = assay: Antifungal activity against Aspergillus niger at 5 mg/ml by paper disc diffusion method
Bacillus subtilis = assay: Antibacterial activity against Bacillus subtilis at 5 mg/ml after 24 hrs by agar-diffusion technique

NNC(=O)c1cc2ccccc2[nH]1
zone of inhibition at 5000 µg/mL (Rhizoctonia solani): 0.85 mm | zone of inhibition at 5000 µg/mL (Fusarium oxysporum): 1.3 mm | zone of inhibition at 5000 µg/mL (Pseudomonas aeruginosa): 3 mm | zone of inhibition at 5000 µg/mL (Aspergillus niger): 0 mm | zone of inhibition at 5000 µg/mL (Bacillus subtilis): 12 mm

O=C(N[C@H](CO)[C@H](O)c1ccc([N+](=O)[O-])cc1)C(Cl)Cl [CHLORAMPHENICOL]
zone of inhibition at 5000 µg/mL (Pseudomonas aeruginosa): 7.9 mm | zone of inhibition at 5000 µg/mL (Bacillus subtilis): 12 mm

CCOC(=O)/C(C)=N/Nc1ccccc1
zone of inhibition at 5000 µg/mL (Rhizoctonia solani): 1.95 mm | zone of inhibition at 5000 µg/mL (Fusarium oxysporum): 2.3 mm | zone of inhibition at 5000 µg/mL (Pseudomonas aeruginosa): 2.65 mm | zone of inhibition at 5000 µg/mL (Aspergillus niger): 1.85 mm | zone of inhibition at 5000 µg/mL (Bacillus subtilis): 12 mm

CC(=O)OC[C@H]1O[C@@H](Sc2n[nH]c(-c3cc4ccccc4[nH]3)n2)[C@H](OC(C)=O)[C@@H](OC(C)=O)[C@H]1OC(C)=O
zone of inhibition at 5000 µg/mL (Rhizoctonia solani): 0.75 mm | zone of inhibition at 5000 µg/mL (Fusarium oxysporum): 2.1 mm | zone of inhibition at 5000 µg/mL (Pseudomonas aeruginosa): 0.5 mm | zone of inhibition at 5000 µg/mL (Aspergillus niger): 0 mm | zone of inhibition at 5000 µg/mL (Bacillus subtilis): 12 mm

NC(=S)NNC(=O)c1cc2ccccc2[nH]1
zone of inhibition at 5000 µg/mL (Rhizoctonia solani): 1.05 mm | zone of inhibition at 5000 µg/mL (Fusarium oxysporum): 1 mm | zone of inhibition at 5000 µg/mL (Pseudomonas aeruginosa): 2.5 mm | zone of inhibition at 5000 µg/mL (Aspergillus niger): 0 mm | zone of inhibition at 5000 µg/mL (Bacillus subtilis): 12 mm

CCOC(=O)c1cc2ccccc2[nH]1
zone of inhibition at 5000 µg/mL (Rhizoctonia solani): 2.7 mm | zone of inhibition at 5000 µg/mL (Fusarium oxysporum): 1.9 mm | zone of inhibition at 5000 µg/mL (Pseudomonas aeruginosa): 4.85 mm | zone of inhibition at 5000 µg/mL (Aspergillus niger): 1.3 mm | zone of inhibition at 5000 µg/mL (Bacillus subtilis): 5.6 mm

CC(=O)OC[C@H]1O[C@@H](Sc2n[nH]c(-c3cc4ccccc4[nH]3)n2)[C@H](OC(C)=O)[C@@H](OC(C)=O)[C@@H]1OC(C)=O
zone of inhibition at 5000 µg/mL (Rhizoctonia solani): 0.6 mm | zone of inhibition at 5000 µg/mL (Fusarium oxysporum): 0 mm | zone of inhibition at 5000 µg/mL (Pseudomonas aeruginosa): 3.25 mm | zone of inhibition at 5000 µg/mL (Aspergillus niger): 0 mm | zone of inhibition at 5000 µg/mL (Bacillus subtilis): 12 mm

S=c1nc(-c2cc3ccccc3[nH]2)[nH][nH]1
zone of inhibition at 5000 µg/mL (Rhizoctonia solani): 0.8 mm | zone of inhibition at 5000 µg/mL (Fusarium oxysporum): 1.7 mm | zone of inhibition at 5000 µg/mL (Pseudomonas aeruginosa): 3.5 mm | zone of inhibition at 5000 µg/mL (Aspergillus niger): 0 mm | zone of inhibition at 5000 µg/mL (Bacillus subtilis): 12 mm

CC(=O)N[C@@H]1[C@@H](OC(C)=O)[C@H](OC(C)=O)[C@@H](COC(C)=O)O[C@H]1Sc1n[nH]c(-c2cc3ccccc3[nH]2)n1
zone of inhibition at 5000 µg/mL (Rhizoctonia solani): 1.75 mm | zone of inhibition at 5000 µg/mL (Fusarium oxysporum): 0 mm | zone of inhibition at 5000 µg/mL (Pseudomonas aeruginosa): 3.9 mm | zone of inhibition at 5000 µg/mL (Aspergillus niger): 0 mm | zone of inhibition at 5000 µg/mL (Bacillus subtilis): 5.1 mm

CC(=O)OC[C@H]1O[C@@H](n2nc(-c3cc4ccccc4[nH]3)nc2S[C@@H]2O[C@H](COC(C)=O)[C@@H](OC(C)=O)[C@H](OC(C)=O)[C@H]2OC(C)=O)[C@H](OC(C)=O)[C@@H](OC(C)=O)[C@@H]1OC(C)=O
zone of inhibition at 5000 µg/mL (Rhizoctonia solani): 1.15 mm | zone of inhibition at 5000 µg/mL (Fusarium oxysporum): 1.95 mm | zone of inhibition at 5000 µg/mL (Pseudomonas aeruginosa): 2.5 mm | zone of inhibition at 5000 µg/mL (Aspergillus niger): 0 mm | zone of inhibition at 5000 µg/mL (Bacillus subtilis): 6.5 mm
